Where two headings read alike, the source gives them in different places.
What was measured:
[1] = biological target: T1, recombinant human MERTK expressed in live cells (HEK 293, MERTK-Nanoluc fusion vector) (Homo sapiens, UniProt Q12866); assay: Assay 2 MERTK cellular target engagement (NanoBRET TE) assay; assay type: cell-based; settings: HEK 293 cells, tracer K9, 2 h at 37° C.; read-out: Assay 2 Cell TE MER IC50
T1 construct: host or cells: HEK 293
T1 sequence (Q12866 21-999): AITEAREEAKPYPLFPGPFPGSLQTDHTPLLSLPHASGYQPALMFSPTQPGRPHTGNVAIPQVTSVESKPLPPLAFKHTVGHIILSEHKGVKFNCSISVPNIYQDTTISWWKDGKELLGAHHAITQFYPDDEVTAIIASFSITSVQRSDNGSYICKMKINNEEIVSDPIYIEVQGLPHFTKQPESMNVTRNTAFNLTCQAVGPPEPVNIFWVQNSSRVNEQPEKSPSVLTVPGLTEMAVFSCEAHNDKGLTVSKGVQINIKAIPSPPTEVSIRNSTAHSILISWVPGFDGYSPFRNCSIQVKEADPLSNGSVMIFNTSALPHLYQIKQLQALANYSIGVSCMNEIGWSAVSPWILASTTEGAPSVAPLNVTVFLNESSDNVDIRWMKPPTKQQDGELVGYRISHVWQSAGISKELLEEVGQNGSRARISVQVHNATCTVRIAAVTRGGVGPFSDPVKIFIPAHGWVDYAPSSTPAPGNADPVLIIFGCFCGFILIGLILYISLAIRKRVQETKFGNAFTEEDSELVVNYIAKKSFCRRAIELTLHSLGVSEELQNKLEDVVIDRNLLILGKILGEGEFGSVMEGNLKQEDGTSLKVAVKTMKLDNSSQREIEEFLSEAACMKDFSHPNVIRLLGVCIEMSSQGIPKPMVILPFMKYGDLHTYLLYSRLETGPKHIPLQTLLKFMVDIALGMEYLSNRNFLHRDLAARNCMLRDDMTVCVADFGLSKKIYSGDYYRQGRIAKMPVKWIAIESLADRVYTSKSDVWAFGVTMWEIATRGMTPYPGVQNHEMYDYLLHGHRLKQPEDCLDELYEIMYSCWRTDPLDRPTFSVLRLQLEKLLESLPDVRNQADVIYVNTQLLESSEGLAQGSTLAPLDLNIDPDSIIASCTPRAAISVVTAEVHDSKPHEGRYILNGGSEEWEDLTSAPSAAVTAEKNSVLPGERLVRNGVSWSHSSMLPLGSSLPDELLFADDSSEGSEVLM

[2] = biological target: T2, recombinant human AXL expressed in live cells (HEK, AXL-Nanoluc fusion vector) (Homo sapiens, UniProt P30530); assay: Assay 3 AXL cellular target engagement (NanoBRET TE) assay; assay type: cell-based
T2 construct: host or cells: HEK
T2 sequence (P30530 26-894): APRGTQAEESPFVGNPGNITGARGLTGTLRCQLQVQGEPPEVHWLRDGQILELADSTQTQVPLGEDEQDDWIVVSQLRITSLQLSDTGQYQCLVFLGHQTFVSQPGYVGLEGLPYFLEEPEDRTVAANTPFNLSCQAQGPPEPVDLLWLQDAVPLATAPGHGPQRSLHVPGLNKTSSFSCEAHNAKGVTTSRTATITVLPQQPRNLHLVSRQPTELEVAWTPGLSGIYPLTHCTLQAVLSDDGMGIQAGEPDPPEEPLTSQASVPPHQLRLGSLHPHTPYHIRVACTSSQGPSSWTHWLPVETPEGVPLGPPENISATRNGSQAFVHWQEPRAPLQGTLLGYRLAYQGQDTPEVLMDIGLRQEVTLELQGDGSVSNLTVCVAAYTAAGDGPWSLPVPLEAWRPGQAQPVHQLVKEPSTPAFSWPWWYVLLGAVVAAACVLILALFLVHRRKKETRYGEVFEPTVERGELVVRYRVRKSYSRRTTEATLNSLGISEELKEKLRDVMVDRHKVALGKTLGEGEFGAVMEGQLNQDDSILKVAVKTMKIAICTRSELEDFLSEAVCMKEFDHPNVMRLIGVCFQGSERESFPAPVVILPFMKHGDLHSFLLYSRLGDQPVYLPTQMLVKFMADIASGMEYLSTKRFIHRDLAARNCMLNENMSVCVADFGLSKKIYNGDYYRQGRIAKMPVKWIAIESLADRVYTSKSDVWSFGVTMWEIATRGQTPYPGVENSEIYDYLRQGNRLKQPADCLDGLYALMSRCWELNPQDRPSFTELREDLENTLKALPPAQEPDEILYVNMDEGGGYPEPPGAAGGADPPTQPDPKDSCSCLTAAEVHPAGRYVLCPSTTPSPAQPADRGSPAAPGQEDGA
Description: Assay 3—AXL Cellular Target Engagement (TE) Assay
Compound affinities for recombinant human AXL expressed in live cells were assessed via the Promega NanoBRET TE assay technology. Human Embryonic Kidney (HEK) cells were transiently transfected with the AXL-Nanoluc fusion vector (Promega Cat NV1071) using Fugene HD reagent (Promega E2311). […] Incubations were conducted for 2 h at 37° C., after which 20 μl NanoGlo substrate/inhibitor mix (Promega N2161) was added to each well for 2-3 min. The plate was then read on a BMG Pherastar FSX using a NanoBRET filter to record donor emission at 450 nm and acceptor fluorophore emission at 610 nm. From this the BRET ratio (acceptor 610 nm/donor 450 nm) for each data point was calculated.

[3] = biological target: T3, human MERTK cytoplasmic domain (Homo sapiens, UniProt Q12866); assay: biochemical; settings: 30 uM ATP, read-out: Assay 1a Mer IC50 30 uM ATP
T3 construct: human MERTK cytoplasmic domain (Carna Biosciences 08-108); purchased Carna Biosciences 08-108
Description: Assay 1a—MERTK HTRF KinEASE-TK Assay
The enzymatic reaction was carried out for 30 min at room temperature. 10 μL TK Antibody-Cryptate/Streptavidin-XL665 (Cisbio 610SAXLG) was then added for 60 min, including EDTA containing detection buffer (Cisbio 62SDBRDF) to stop the reaction.

[4] = biological target: T4, Ba/F3 Pro B-cell line expressing TEL-human Tyro3 fusion domain (Homo sapiens, UniProt Q06418); assay type: cell-based; settings: cell survival, 48 h, CellTiter-Glo
T4 sequence (Q06418 518-790 limits assumed): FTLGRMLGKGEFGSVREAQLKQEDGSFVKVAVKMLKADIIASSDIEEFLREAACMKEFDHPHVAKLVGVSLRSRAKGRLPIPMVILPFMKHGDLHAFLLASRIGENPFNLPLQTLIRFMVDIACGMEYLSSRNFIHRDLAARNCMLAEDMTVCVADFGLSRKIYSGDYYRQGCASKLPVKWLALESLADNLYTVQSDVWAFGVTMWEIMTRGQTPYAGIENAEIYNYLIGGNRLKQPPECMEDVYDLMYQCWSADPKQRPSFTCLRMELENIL

[5] = biological target: T5, Ba/F3 Pro B-cell line expressing BCR-human AXL kinase domain fusion protein (Homo sapiens, UniProt P30530); assay: Assay 5 Ba/F3 cell survival assay, BCR-Axl; assay type: cell-based; settings: read-out: BCR-Axl Ba/F3 IC50, 48 h, CellTiter-Glo
T5 construct: P11274 (Breakpoint cluster region protein)
T5 sequence (P30530 536-807 limits assumed): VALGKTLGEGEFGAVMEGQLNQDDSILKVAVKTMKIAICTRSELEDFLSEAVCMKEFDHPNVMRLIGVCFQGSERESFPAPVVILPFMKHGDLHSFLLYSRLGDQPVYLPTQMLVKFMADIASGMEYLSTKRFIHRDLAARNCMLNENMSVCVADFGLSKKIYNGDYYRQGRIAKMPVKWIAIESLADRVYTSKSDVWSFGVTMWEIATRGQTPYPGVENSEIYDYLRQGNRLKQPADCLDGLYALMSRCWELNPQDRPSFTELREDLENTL
Summary of the method: (§1)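 Ba/F3 cells dependent on BCR-AXL or TEL-MERTK fusion kinase (IL3-free; IL3 only for control lines) treated with compound 48 h at 37 °C, 0.25% DMSO. Viability by CellTiter-Glo luminescence; IC50 for half-maximal inhibition of survival from 4-parameter variable-slope fit.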

[6] = biological target: T6, human AXL cytoplasmic domain (Homo sapiens, UniProt P30530); assay: Assay 1b AXL HTRF KinEASE-TK assay; assay type: biochemical
T6 construct: human AXL cytoplasmic domain (Thermo Fisher A31515); purchased Thermo Fisher A31515
T6 sequence (P30530 473-894 limits assumed): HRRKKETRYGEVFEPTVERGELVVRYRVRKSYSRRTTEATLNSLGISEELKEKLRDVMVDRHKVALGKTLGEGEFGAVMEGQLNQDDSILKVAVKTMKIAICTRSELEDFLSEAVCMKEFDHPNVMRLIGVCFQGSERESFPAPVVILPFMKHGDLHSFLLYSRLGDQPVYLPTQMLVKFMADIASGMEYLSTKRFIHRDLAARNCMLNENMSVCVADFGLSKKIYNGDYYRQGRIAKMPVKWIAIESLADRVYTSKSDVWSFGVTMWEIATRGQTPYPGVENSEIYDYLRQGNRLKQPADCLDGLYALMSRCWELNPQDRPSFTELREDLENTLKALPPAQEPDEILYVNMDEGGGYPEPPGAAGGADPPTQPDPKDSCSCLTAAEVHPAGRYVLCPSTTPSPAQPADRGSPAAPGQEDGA
Summary of the method: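 Recombinant cytoplasmic domain (5 nM) in kinase buffer with 5 mM MgCl2, 1 mM MnCl2, 1 mM DTT, 50 nM SEB plus test compounds; reaction 30 min at room temperature. EDTA-containing detection with TK antibody-cryptate/streptavidin-XL665 for 60 min; HTRF 665/620 ratio read. IC50 from 4-parameter logistic fit with variable slope.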

[7] = biological target: T7, Ba/F3 Pro B-cell line expressing TEL-human MERTK fusion domain (Homo sapiens, UniProt Q12866); assay type: cell-based; settings: cell survival, 48 h, CellTiter-Glo; read-out: TEL-MERTK Ba/F3 IC50
T7 sequence (Q12866 587-858 limits assumed): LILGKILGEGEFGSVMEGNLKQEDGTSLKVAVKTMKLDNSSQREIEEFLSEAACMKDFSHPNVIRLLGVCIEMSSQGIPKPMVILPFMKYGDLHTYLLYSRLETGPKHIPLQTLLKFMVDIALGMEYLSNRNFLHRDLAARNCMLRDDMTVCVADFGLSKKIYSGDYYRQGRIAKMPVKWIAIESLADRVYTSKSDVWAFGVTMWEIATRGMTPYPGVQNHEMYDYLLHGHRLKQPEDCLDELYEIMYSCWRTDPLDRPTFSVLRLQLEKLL
Summary of the method: as §1

SMILES	IC50 [1]	IC50 [2]	IC50 [3]	IC50 ([3]; * Maximal inhibition achieved 40%)	IC50 [4]	IC50 [5]	IC50 [6]	IC50 [7]
O=C(Nc1ccc(Nc2ccnc3cnc(N4CCNCC4)cc23)cc1)c1cccn(-c2ccccc2)c1=O [Example 1, 2-oxo-1-phenyl-N-[4-[(6-piperazin-1-yl-1,7-naphthyridin-4-yl)amino]phenyl]pyridine-3-carboxamide]	175 nM	145 nM	68 nM	–	–	–	–	–
CC(C)n1cc(C(=O)Nc2ccc(Nc3ccnc4cnc(N5CCNCC5)cc34)cc2)c(=O)n(-c2ccc(F)cc2)c1=O [Example 1.1, 3-(4-fluorophenyl)-1-isopropyl-2,4-dioxo-N-[4-[(6-piperazin-1-yl-1,7-naphthyridin-4-yl)amino]phenyl]pyrimidine-5-carboxamide]	1750 nM	2.9 nM	75 nM	–	–	–	–	–
O=C(Nc1ccc(Nc2ccnc3cnc(N4CCNCC4)cc23)cc1)c1cccn(-c2ccc(F)cc2)c1=O [Example 1.2, 1-(4-fluorophenyl)-2-oxo-N-[4-[(6-piperazin-1-yl-1,7-naphthyridin-4-yl)amino]phenyl]pyridine-3-carboxamide]	28 nM	114 nM	20 nM	–	–	–	–	–
CC(C)n1cc(C(=O)Nc2ccc(Nc3ccnc4cnc(N5CCNCC5)cc34)cc2)c(=O)n(-c2ccccc2)c1=O [Example 1.3, 1-isopropyl-2,4-dioxo-3-phenyl-N-[4-[(6-piperazin-1-yl-1,7-naphthyridin-4-yl)amino]phenyl]pyrimidine-5-carboxamide]	260 nM	24.8 nM	182 nM	–	–	–	–	–
Cc1c(C(=O)Nc2ccc(Nc3ccnc4cnc(N5CCNCC5)cc34)cc2)c(=O)n(-c2ccccc2)n1C [Example 1.4, 1,5-dimethyl-3-oxo-2-phenyl-N-[4-[(6-piperazin-1-yl-1,7-naphthyridin-4-yl)amino]phenyl]pyrazole-4-carboxamide]	2190 nM	–	33 nM	–	–	–	–	–
O=C(Nc1ccc(Nc2ccnc3cnc(N4CCC(O)CC4)cc23)cc1)c1cccn(-c2ccccc2)c1=O [Example 2, N-[4-[[6-(4-hydroxy-1-piperidyl)-1,7-naphthyridin-4-yl]amino]phenyl]-2-oxo-1-phenyl-pyridine-3-carboxamide]	46.6 nM	173 nM	59 nM	–	–	–	–	–
Cn1cc(-c2cc3c(Nc4ccc(NC(=O)c5cccn(-c6ccccc6)c5=O)cc4)ccnc3cn2)cn1 [Example 4, N-[4-[[6-(1-methylpyrazol-4-yl)-1,7-naphthyridin-4-yl]amino]phenyl]-2-oxo-1-phenyl-pyridine-3-carboxamide]	2900 nM	–	–	3 nM	–	–	–	–
CN1CCN(c2cc3c(Oc4ccc(NC(=O)c5cccn(-c6ccc(F)cc6)c5=O)cc4)ccnc3cn2)CC1 [Example 35, 1-(4-fluorophenyl)-N-[4-[[6-(4-methylpiperazin-1-yl)-1,7-naphthyridin-4-yl]oxy]phenyl]-2-oxo-pyridine-3-carboxamide]	–	–	4 nM	–	116 nM	8 nM	60 nM	14 nM
